Values quoted from earlier work, collected in patent US20060188492A1, “Topical management of ocular and periocular conditions” (ChronoRX LLC, an Alaska Limited Liability Company, priority 2005, published 2006).

Legend:
lens = details: experimental evidence; compared with the R isomer
[1] = system: bovine aortic endothelial cells; details: LA added before endothelial exposure to AGE albumin
[2] = in the presence of glutathione (GSH)

SMILES | prevention of cataract development (lens) | other results
O=C(O)CCCCC1CCSS1 (racemic) [racemic mixture, 1,2-dithiolane-3-pentanoic acid] | less than one-half as effective as the R isomer | –
O=C(O)CCCCC1CCSS1 (single isomer, unassigned) [S isomer, 1,2-dithiolane-3-pentanoic acid] | not effective | –
O=C(O)CCCCC1CCSS1 (centres unmarked) [LA, 1,2-dithiolane-3-pentanoic acid] | – | depletion of GSH and ascorbic acid [1]: completely prevents depletion of GSH and ascorbic acid
O=C(O)CCCCC1CCSS1 (stereo not drawn) [R stereoisomer of LA, 1,2-dithiolane-3-pentanoic acid] | can prevent cataract development | –
C[C@]12CC[C@@H]3c4ccc(O)cc4CC[C@H]3[C@@H]1CC[C@H]2O [estradiol, 17 α-estradiol] | – | increase of neuroprotective potency [2]: 400 fold
